Consider three compounds from PMC9178010, “Identification and characterization of a prokaryotic 6-4 photolyase from Synechococcus elongatus with a deazariboflavin antenna chromophore” (Nucleic Acids Research, 2022).

SMILES strings stand for the structures.

Common to all, as to assay type: binding
Experiment [1] has as its target T1, SePhrA (SePhrA[ScFbiC]) (Synechococcus elongatus, UniProt Q31S25).
T1 construct: gene Synpcc7942_0112; full-length gene in pET22b, E. coli BL21(DE3), co-expressed with S. coelicolor FbiC; Ni-NTA and Superdex 200
T1 sequence (Q31S25 1-484): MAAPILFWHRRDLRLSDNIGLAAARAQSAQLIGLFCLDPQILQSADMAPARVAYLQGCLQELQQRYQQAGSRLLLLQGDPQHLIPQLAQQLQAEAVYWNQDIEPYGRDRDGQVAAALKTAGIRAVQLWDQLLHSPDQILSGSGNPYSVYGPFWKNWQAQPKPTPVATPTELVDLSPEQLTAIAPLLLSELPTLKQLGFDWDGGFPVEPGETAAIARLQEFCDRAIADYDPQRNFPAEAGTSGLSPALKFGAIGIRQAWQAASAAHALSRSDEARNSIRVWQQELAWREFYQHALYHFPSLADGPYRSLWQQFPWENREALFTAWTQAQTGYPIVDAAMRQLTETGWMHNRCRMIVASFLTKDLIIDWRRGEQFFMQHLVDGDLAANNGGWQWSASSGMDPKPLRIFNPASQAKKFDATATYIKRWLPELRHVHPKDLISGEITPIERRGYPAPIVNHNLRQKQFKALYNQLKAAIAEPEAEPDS
Nature of the experiment: co-purified cofactor; absorption, fluorescence and TLC of denatured protein. Conditions: antenna chromophore; co-expressed with S. coelicolor FO synthase FbiC.

Experiment [2] addresses T2, SePhrB (SePhrB[Ec]; SePhrB[ScFbiC]; SePhrB[8-HDF]) (Synechococcus elongatus, UniProt Q31P18).
T2 construct: gene Synpcc7942_1171; full-length gene in pET22b, E. coli BL21(DE3), Ni-NTA and Superdex 200; iron-sulfur cluster protein; expressed alone or with S. coelicolor FbiC
T2 sequence (Q31P18 1-503): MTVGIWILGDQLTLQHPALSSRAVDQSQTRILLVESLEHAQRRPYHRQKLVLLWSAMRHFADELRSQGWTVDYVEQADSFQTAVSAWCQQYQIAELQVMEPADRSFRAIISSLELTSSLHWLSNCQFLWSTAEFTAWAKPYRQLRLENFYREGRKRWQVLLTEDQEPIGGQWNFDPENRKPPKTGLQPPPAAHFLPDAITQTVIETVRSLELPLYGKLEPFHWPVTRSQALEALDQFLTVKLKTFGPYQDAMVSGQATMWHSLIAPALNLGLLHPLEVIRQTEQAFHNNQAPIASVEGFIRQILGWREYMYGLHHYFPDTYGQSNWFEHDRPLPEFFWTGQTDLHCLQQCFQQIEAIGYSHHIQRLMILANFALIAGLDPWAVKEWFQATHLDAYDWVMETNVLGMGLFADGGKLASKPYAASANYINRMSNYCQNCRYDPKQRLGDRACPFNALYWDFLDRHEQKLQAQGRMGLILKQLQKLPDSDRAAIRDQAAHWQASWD
Described as above.

In a further experiment the target is T3, AfPhrB (Agrobacterium fabrum, UniProt A9CH39).
T3 construct: gene phrB; synthetic phrB gene in pET22b, E. coli BL21(DE3), Ni-NTA and Superdex 200
The experiment is described as above. Particulars: co-purified from E. coli.

Experiment [3] addresses T1, SePhrA (SePhrA[ScFbiC]). In words: TLC of denatured protein supernatant. Conditions: catalytic cofactor; co-expressed with S. coelicolor FO synthase FbiC.

T3 sequence (A9CH39 whole entry): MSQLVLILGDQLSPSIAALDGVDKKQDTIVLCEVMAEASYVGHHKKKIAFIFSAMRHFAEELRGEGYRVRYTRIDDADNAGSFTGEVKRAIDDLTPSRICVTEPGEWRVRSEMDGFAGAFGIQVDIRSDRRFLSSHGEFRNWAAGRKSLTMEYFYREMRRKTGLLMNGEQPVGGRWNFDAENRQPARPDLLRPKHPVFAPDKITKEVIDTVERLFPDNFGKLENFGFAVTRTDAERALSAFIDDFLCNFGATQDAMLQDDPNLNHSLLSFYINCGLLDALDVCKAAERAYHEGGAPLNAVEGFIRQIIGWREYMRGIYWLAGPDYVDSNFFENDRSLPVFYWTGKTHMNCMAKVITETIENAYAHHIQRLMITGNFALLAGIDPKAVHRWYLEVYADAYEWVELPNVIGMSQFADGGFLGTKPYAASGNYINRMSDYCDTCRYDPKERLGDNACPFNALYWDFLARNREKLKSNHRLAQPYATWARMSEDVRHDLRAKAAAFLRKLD

For `O=c1nc2n(C[C@H](O)[C@H](O)[C@H](O)CO)c3cc(O)ccc3cc-2c(=O)[nH]1` [8-HDF, 7,8-didemethyl-8-hydroxy-5-deazariboflavin], the “co-purified cofactor; absorption, fluorescence and TLC of denatured protein” value (“co-purified cofactor; absorption” for short) at SePhrA (SePhrA[ScFbiC]) [1] was “an additional bright blue band that was attributed to 8-HDF”; in experiment [2] (antenna chromophore, co-expressed with S. coelicolor FO synthase FbiC) it was “SePhrB associates with FAD and 8-HDF when co-expressed with the ScFbiC”.

`Cc1nc2c(=O)[nH]c(=O)nc-2n(C[C@H](O)[C@H](O)[C@H](O)CO)c1C` [DMRL, 6,7-dimethyl-8-ribityllumazine]: on AfPhrB (antenna chromophore), the “co-purified cofactor; absorption” value is “a yellow fluorescent band of FAD, and a blue-green fluorescent band of DMRL”.

`Cc1cc2nc3c(=O)[nH]c(=O)nc-3n(C[C@H](O)[C@H](O)[C@H](O)COP(=O)(O)OP(=O)(O)OC[C@H]3O[C@@H](n4cnc5c(N)ncnc54)[C@H](O)[C@@H]3O)c2cc1C` [FAD]: on SePhrA (SePhrA[ScFbiC]) [3], the “TLC of denatured protein supernatant” value is “each of them had a yellow FAD band”. Further, the “co-purified cofactor; absorption” value in experiment [2] (catalytic cofactor, expressed in E. coli without FbiC, fully oxidized as purified) is “SePhrB[Ec] gave only one yellow fluorescent band with the same Rf value of authentic FAD”; on AfPhrB (catalytic cofactor), “the supernatant of AfphrB produced a yellow fluorescent band of FAD”.
